Experimental data from ChEMBL document CHEMBL1127476, “3-substituted thieno[2,3-b][1,4]thiazine-6-sulfonamides. A novel class of topically active carbonic anhydrase inhibitors” (J Med Chem, 1994).
In brackets after ≈: the same amount, converted by molar mass.

Experiments:
[1] = The pKa value in 30% EtOH/H2O; assay type: physicochemical
Carbonic anhydrase 2 [2] = target: T1, Carbonic anhydrase 2 (Homo sapiens, UniProt P00918)
Description: Tested for ability to compete with dansylamide for binding to human erythrocyte carbonic-anhydrase-II (HCA-II)

Carbonic anhydrase 2 [3] = target: T1, Carbonic anhydrase 2; remark: listed apart in the source
Description: Tested for ability to inhibit human erythrocyte carbonic-anhydrase-II- (HCA II) catalyzed carbon dioxide hydration

physchem = details: pH 5.2 buffer, pH 5.2, Solubility
Oryctolagus cuniculus [4] = species on record: Oryctolagus cuniculus
Description: Reduction of the elevated intraocular pressure (IOP) in alpha-chymotrypsin treated albino rabbit

Oryctolagus cuniculus [5] = species on record: Oryctolagus cuniculus; remark: listed apart in the source
Description: Change in intraocular pressure (IOP) was measured in the normotensive pigmented rabbit

Oryctolagus cuniculus [6] = species on record: Oryctolagus cuniculus; remark: listed apart in the source
Description: Change in intraocular pressure (IOP) was measured in the normotensive pigmented rabbit in presence of MK-927

[7] = buffer, pH 5.2
Description: Solubility in pH 5.2 buffer

Compound	pKa [1]	Ki (Carbonic anhydrase 2 [2])	IC50 (Carbonic anhydrase 2 [3])	solubility (physchem)	Delta IOP (Oryctolagus cuniculus [4])	Delta IOP (Oryctolagus cuniculus [5])	Delta IOP (Oryctolagus cuniculus [6])	solubility [7]
NS(=O)(=O)c1cc2c(s1)S(=O)(=O)CC(=O)N2	7.43	2.9 nM	3.7 nM	600 µg/mL (≈ 2.13 mM)				
COCCN(CCOC)CCC1CNc2cc(S(N)(=O)=O)sc2S1(=O)=O (configuration not stated)	6.4	0.97 nM	2.14 nM	> 6700 µg/mL	4 mmHg	-4.1 mmHg	-5.1 mmHg	
COCCOCCN(CCOC)CCC1C(=O)Nc2cc(S(N)(=O)=O)sc2S1(=O)=O (configuration not stated)		4.14 nM	5.15 nM					
CC(C)CN[C@H]1CCS(=O)(=O)c2sc(S(N)(=O)=O)cc21 (stereo in doubt; form 1) [SEZOLAMIDE]								> 16000 µg/mL
NS(=O)(=O)c1cc2c(s1)S(=O)(=O)C1(CC1)CN2	8.29	10.9 nM	2 nM	520 µg/mL (≈ 1.77 mM)				
NS(=O)(=O)c1cc2c(s1)SCC(=O)N2		24 nM	12.8 nM					
COCCOCCN(CCOC)CCC1CNc2cc(S(N)(=O)=O)sc2S1(=O)=O (configuration not stated)	6.55	4.14 nM	1.45 nM	11800 µg/mL (≈ 25 mM)	6 mmHg	-1.6 mmHg	-5.3 mmHg	
NS(=O)(=O)c1cc2c(s1)SC(CCO)CN2 (configuration not stated)	9.62			640 µg/mL (≈ 2.28 mM)				
CC(C)CNC(=O)CC1Sc2sc(S(N)(=O)=O)cc2NC1=O (configuration not stated)	3.65			30 µg/mL (≈ 0.0825 mM)				
NS(=O)(=O)c1cc2c(s1)SC(CC(=O)O)C(=O)N2 (configuration not stated)	4.3	47.5 nM		2400 µg/mL (≈ 7.78 mM)				
CC(C)CNCCC1CNc2cc(S(N)(=O)=O)sc2S1(=O)=O (configuration not stated)	8.18	4.05 nM	2.9 nM	24000 µg/mL (≈ 65.3 mM)	-4.5 mmHg	-2.1 mmHg	-6.2 mmHg	
NS(=O)(=O)c1cc2c(s1)S(=O)(=O)C(CCN1CCOCC1)CN2 (configuration not stated)	3.23			2100 µg/mL (≈ 5.5 mM)	5 mmHg	-2.8 mmHg	-4.4 mmHg	
CC(C)CN[C@H]1CCS(=O)(=O)c2sc(S(N)(=O)=O)cc21 (stereo in doubt; form 2) [SEZOLAMIDE]								33000 µg/mL (≈ 97.5 mM)
NS(=O)(=O)c1cc2c(s1)S(=O)(=O)CCN2	8.8	3.36 nM	2.46 nM	190 µg/mL (≈ 0.708 mM)				
COCCOCCN(CCOC)C(=O)CC1C(=O)Nc2cc(S(N)(=O)=O)sc2S1(=O)=O (configuration not stated)		3.6 nM	2.18 nM					
NS(=O)(=O)c1cc2c(s1)S(=O)(=O)C(CCO)CN2 (configuration not stated)	8.45	1.19 nM	1.9 nM	4500 µg/mL (≈ 14.4 mM)				
